Literature values as cited in US11207302B2, “1,2,5-oxadiazoles as inhibitors of indoleamine 2,3-dioxygenase” (Incyte Corporation, priority 2008, dated 2021).

How the values were obtained:
[1] = system: LLC tumors; settings: LLC tumors in C57Bl/6 mice, versus placebo
[2] = system: P815 tumor; settings: pre-immunized immune-competent mice challenged with murine tumor cells

SMILES: Cn1cc(C[C@H](N)C(=O)O)c2ccccc21 [Example 1-MT, 1-methyl-tryptophan]
- formation of tumors [1]: markedly delayed
- growth of tumors [2]: inhibited
